The values below come from US20170196998A1, “NANOPARTICLE CONTRAST AGENT FOR EARLY DIAGNOSIS OF ALZHEIMER'S DISEASE BY MAGNETIC RESONANCE IMAGING (MRI)” (The Chinese University of Hong Kong, priority 2016, published 2017).

For data set [1], the target named is amyloid plaques (Homo sapiens, UniProt P05067). Kind of data set: Confocal fluorescent and phase-contrast imaging of amyloid plaque binding on consecutive brain sections. The following applies: applied to consecutive sections of APP transgenic mouse brain, FIG. 5. An excerpt:
From top to bottom: Thioflavin T, curcumin, and curcumin-conjugated iron oxide.
The formulation of Curcumin-conjugated magnetic nanoparticles is described herein.

Data set [2] is described as follows: Adsorption isotherm of curcumin on iron oxide (Langmuir model). It is filed as physicochemical. The note with it: room temperature, monolayer. The procedure: Based on the absorption isotherm study, curcumin preferentially binds the iron oxide surface, with a calculated maximum loading of 75 mg of curcumin per gram of iron oxide. FIGS. 2 & 3 show the adsorption isotherm and Langmuir model, which indicate that Curcumin is forming a monolayer and binds at a homogeneous site on the iron oxide surface.

Sequence of amyloid plaques (P05067 672-713 limits assumed): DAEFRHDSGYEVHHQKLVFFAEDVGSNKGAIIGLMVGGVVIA

Turning to `Cc1ccc2c(c1)sc(-c1ccc(N(C)C)cc1)[n+]2C.[Cl-]` [Thioflavin T], the amyloid plaque binding entry in data set [1] was “bind amyloid plaques”.

For `COc1cc(/C=C/C(=O)CC(=O)/C=C/c2ccc(O)c(OC)c2)ccc1O` [curcumin], the amyloid plaque binding entry in data set [1] is “bind amyloid plaques”. Also, in data set [2], the “calculated maximum loading of curcumin on iron oxide” value is reported as 75 mg of curcumin per gram of iron oxide.
